Measurements as given in patent US8404683B2, “Inhibitors of the interaction between MDM2 and P53” (Janssen Pharmaceutical N.V., priority 2004, dated 2013).

These molecules were tested on U87MG cells (assay: Proliferation assay (MTT-based) on U87MG tumour cells). Conditions: Homo sapiens, U-87 MG, 96 h, 4 days of incubation, negative log value of the IC50-value, read-out: cell proliferation pIC50 (converted).
Experimental: U87MG cells are human glioblastoma cells with wild type p53. In this cell line MDM2 tightly controls p53 expression.
Cellular activity of the compounds of formula (I) was determined on U87MG tumour cells using a colorimetric assay for cell toxicity or survival (see example C.2).
All compounds tested were dissolved in DMSO and further dilutions were made in culture medium. Final DMSO concentrations never exceeded 0.1% (v/v) in cell proliferation assays. Controls contained U87MG cells and DMSO without compound and blanks contained DMSO but no cells.
U87MG cells were seeded in 96-well cell culture plates at 3000 cells/well/100 μl. 24 hours later, medium was changed and compound and/or solvent were added to a final volume of 200 μl. Following 4 days of incubation, medium was replaced by 200 μl fresh medium and cell growth was assessed using a MTT-based assay. Therefore, 25 μl of the MTT solution (0.5% MTT research grade from Serva in phosphate-buffered saline) was added to each well and the cells were further incubated for 2 hours at 37° C. The medium was then carefully aspirated and the blue MTT-formazan product was dissolved by adding to each well 25 μl 0.1 M glycin and 100 μl DMSO. The plates were shaken for another 10 min on a micro plate shaker before reading absorbance at 540 nm by a Biorad micro plate reader.
Within an experiment, the results for each experimental condition are the mean of 3 replicate wells. For initial screening purposes, compounds were tested at a single fixed concentration of 10^−5 M. For active compounds, the experiments were repeated to establish full concentration-response curves. For each experiment, controls (containing no drug) and a blank incubation (containing no cells or drugs) were run in parallel. The blank value was subtracted from all control and sample values. For each sample, the mean value for cell growth (in absorbance units) was expressed as a percentage of the mean value for cell growth of the control. When appropriate, IC50-values (concentration of the drug, needed to reduce cell growth to 50% of the control) were computed using probit analysis for graded data (Finney, D. J., Probit Analyses, 2nd Ed. Chapter 10, Graded Responses, Cambridge University Press, Cambridge 1962). Herein the effects of test compounds are expressed as pIC50 (the negative log value of the IC50-value) (see table F-2).
`CC(N)c1cc(Nc2ccc(NCCc3c[nH]c4ccccc34)cc2)ccn1` (centres unmarked) [Compound 141] was tested, and the IC50 was 3.98 µM. In the case of `CCC(O)c1cnccc1Nc1ccc(NCCc2c[nH]c3ccccc23)cc1` (centres unmarked) [Compound 127], the IC50 is reported as 7.94 µM. Work on `Oc1cccc2c(Nc3ccc(NCCc4c[nH]c5ccccc45)cc3)ccnc12` [Compound 27] yielded an IC50 of 0.0794 µM. Molecule `OCC(Cc1c[nH]c2ccccc12)Nc1ccc(Nc2ccncc2)cc1` (centres unmarked) [Compound 48] has an IC50 of 0.158 µM. Molecule `COc1cc(Nc2ccnc(CO)c2)ccc1NCCc1c[nH]c2ccccc12` [Compound 179] has an IC50 of 0.251 µM. For `CCC(O)(CC)c1cc(Nc2ccc(NCCc3c[nH]c4ccccc34)cc2)ccn1` [Compound 128], the IC50 was 3.16 µM. With `COC(C)c1cc(Nc2ccc(NCCc3c[nH]c4ccccc34)cc2)ccn1` (centres unmarked) [Compound 150] the IC50 was 3.16 µM. `OCc1cc(Nc2ccc(NCCc3c[nH]c4ccccc34)cc2)ccn1` [Compound 37] gave an IC50 of 0.158 µM. In the case of `COc1cc(Nc2ccnc3ccccc23)ccc1NCCc1c[nH]c2ccccc12` [Compound 16], the IC50 is reported as 0.0398 µM. `CNC(=O)c1cc(Nc2ccc(NCCc3c[nH]c4ccccc34)cc2)ccn1` [Compound 63] gave an IC50 of 1.58 µM. With `O=C(CCc1c[nH]c2ccccc12)Nc1cccc(Nc2ccncc2)c1` [Compound 82] the IC50 was > 10 µM. `O=C(c1cc(Nc2ccc(NCCc3c[nH]c4ccccc34)cc2)ccn1)C1CC1` [Compound 204] showed an IC50 of 7.94 µM. With `COc1cccc2c(CCNc3ccc(Nc4ccncc4)cc3)c[nH]c12` [Compound 188] the IC50 was 0.794 µM. For `O=C(C(Cc1c[nH]c2ccccc12)Nc1ccc(Nc2ccncc2)cc1)N1CCN(CCOCCO)CC1` (centres unmarked) [Compound 116], the IC50 was > 10 µM. `O=C(C(Cc1c[nH]c2ccccc12)Nc1ccc(Nc2ccncc2)cc1)N1CCCCC1CCCO` (centres unmarked) [Compound 216] gave an IC50 of 2.51 µM. With `COC(=O)c1ccc2nc(C)cc(Nc3ccc(NCCc4c[nH]c5ccccc45)cc3)c2c1` [Compound 15] the IC50 was 0.0501 µM. `CC(NCCN)c1cc(Nc2ccc(NCCc3c[nH]c4ccccc34)cc2)ccn1` (centres unmarked) [Compound 89] was tested, and the IC50 was 3.98 µM. `c1ccc2c(c1)NCC2CCNc1ccc(Nc2ccncc2)cc1` (centres unmarked) [Compound 68] showed an IC50 of 2.51 µM. In the case of `c1ccc2c(Nc3ccc(NCCc4c[nH]c5ccccc45)cc3)ccnc2c1` [Compound 1], the IC50 is reported as < 0.01 µM. `Cc1cccc2c(CCNc3ccc(Nc4ccncc4)cc3)c[nH]c12` [Compound 187] was tested, and the IC50 was 0.398 µM. In the case of `O=C(CCc1ccccc1)NCc1cc(Nc2ccc(NCCc3c[nH]c4ccccc34)cc2)ccn1` [Compound 131], the IC50 is reported as 2.51 µM. For `CC(O)c1cc(Nc2ccc(NCCc3c[nH]c4ccccc34)cc2)ccn1` (centres unmarked) [Compound 104], the IC50 was 3.16 µM. With `O=C(c1ccccc1)c1cc(Nc2ccc(NCCc3c[nH]c4ccccc34)cc2)ccn1` [Compound 56] the IC50 was 2.51 µM. With `CCN(CC)Cc1cc(Nc2ccc(NCCc3c[nH]c4ccccc34)cc2)ccn1` [Compound 161] the IC50 was 1 µM. For `c1ccc(-c2cc(Nc3ccc(NCCc4c[nH]c5ccccc45)cc3)ccn2)cc1` [Compound 39], the IC50 was 0.631 µM. Molecule `OCc1cc(Nc2ccc(NCCc3c[nH]c4ccccc34)cc2)cc(CO)n1` [Compound 135] has an IC50 of 1 µM. With `O=C(O)c1cc(Nc2ccc(NCCc3c[nH]c4ccccc34)cc2)ccn1` [Compound 58] the IC50 was > 10 µM. In the case of `CN(C)CCN(Cc1ccccc1)C(=O)C(Cc1c[nH]c2ccccc12)Nc1ccc(Nc2ccncc2)cc1` (centres unmarked) [Compound 211], the IC50 is reported as 0.0631 µM. In the case of `N#CC=Cc1ccc2c(CCNc3ccc(Nc4ccncc4)cc3)c[nH]c2c1` [Compound 194], the IC50 is reported as 6.31 µM. `OCc1cnccc1Nc1ccc(NCCc2c[nH]c3ccccc23)cc1` [Compound 123] gave an IC50 of 5.01 µM. With `COc1ccc2c(CCNc3ccc(Nc4ccncc4)cc3)c[nH]c2c1` [Compound 54] the IC50 was 0.126 µM. `O=C(O)CCNCc1cc(Nc2ccc(NCCc3c[nH]c4ccccc34)cc2)ccn1` [Compound 97] was tested, and the IC50 was > 10 µM. `c1ccc2c(CNc3ccc(NCCc4c[nH]c5ccccc45)cc3)ccnc2c1` [Compound 120] gave an IC50 of 5.01 µM. Molecule `O=C(C(Cc1c[nH]c2ccccc12)Nc1ccc(Nc2ccncc2)cc1)N1CCC(CCCO)CC1` (centres unmarked) [Compound 217] has an IC50 of 3.98 µM. `NCCNCc1cc(Nc2ccc(NCCc3c[nH]c4ccccc34)cc2)ccn1` [Compound 93] was tested, and the IC50 was > 10 µM. With `CC(O)C1CCN(C(=O)C(Cc2c[nH]c3ccccc23)Nc2ccc(Nc3ccncc3)cc2)CC1` (centres unmarked) [Compound 225] the IC50 was 0.158 µM. `COc1ccc2c(CCNc3ccc(Nc4ccnc(CO)c4)cc3OC)c[nH]c2c1` [Compound 181] was tested, and the IC50 was 0.251 µM. `CC(NCCCCO)c1cc(Nc2ccc(NCCc3c[nH]c4ccccc34)cc2)ccn1` (centres unmarked) [Compound 100] gave an IC50 of 3.98 µM. `COC(=O)c1cc(Nc2ccc(NCCc3c[nH]c4cc(OC)ccc34)cc2)ccn1` [Compound 178] was tested, and the IC50 was 1.58 µM. `COC(=O)c1cnccc1Nc1ccc(NCCc2c[nH]c3ccccc23)cc1` [Compound 124] was tested, and the IC50 was 5.01 µM. For `Brc1ccc2c(CCNc3ccc(Nc4ccncc4)cc3)c[nH]c2c1` [Compound 192], the IC50 was > 10 µM. `COc1ccc2c(CCNc3ccc(Nc4ccnc(CO)c4)cc3)c[nH]c2c1` [Compound 180] gave an IC50 of 0.631 µM. In the case of `c1ccc2c(CCNc3ccc(Nc4ccnc(CNCCCN5CCOCC5)c4)cc3)c[nH]c2c1` [Compound 166], the IC50 is reported as > 10 µM. With `O=C(C(Cc1c[nH]c2ccccc12)Nc1ccc(Nc2ccncc2)cc1)N1CCC(CCO)C1` (centres unmarked) [Compound 210] the IC50 was > 10 µM. In the case of `NCc1cc(Nc2ccc(NCCc3c[nH]c4ccccc34)cc2)ccn1` [Compound 55], the IC50 is reported as 0.501 µM. `Cc1cnccc1Nc1ccc(NCCc2c[nH]c3ccccc23)cc1` [Compound 60] gave an IC50 of 0.1 µM. For `c1ccc2c(CCNc3ccc(Nc4ccnnc4)cc3)c[nH]c2c1` [Compound 119], the IC50 was > 10 µM. With `COc1ccc2[nH]cc(CCNc3ccc(Nc4ccnc5ccccc45)cc3)c2c1` [Compound 32] the IC50 was 0.158 µM. `Fc1ccc2c(CCNc3ccc(Nc4ccncc4)cc3)c[nH]c2c1` [Compound 184] was tested, and the IC50 was 1 µM. `Clc1ccc2[nH]cc(CCNc3ccc(Nc4ccncc4)cc3)c2c1` [Compound 182] was tested, and the IC50 was 1.58 µM. `CC(=O)OC(C)(C)c1cc(Nc2ccc(NCCc3c[nH]c4ccccc34)cc2)ccn1` [Compound 202] was tested, and the IC50 was 3.16 µM. Molecule `OC(c1cc(Nc2ccc(NCCc3c[nH]c4ccccc34)cc2)ccn1)C1CC1` (centres unmarked) [Compound 136] has an IC50 of 2 µM. With `CC(NCCNC(=O)OCc1ccccc1)c1cc(Nc2ccc(NCCc3c[nH]c4ccccc34)cc2)ccn1` (centres unmarked) [Compound 88] the IC50 was 3.16 µM. `COc1cc(NCCc2c[nH]c3ccccc23)ccc1Nc1ccncc1` [Compound 85] gave an IC50 of 0.158 µM. With `FC(F)(F)c1cccc2c(Nc3ccc(NCCc4c[nH]c5ccccc45)cc3)ccnc12` [Compound 31] the IC50 was 1.26 µM. `CC(=O)OCc1cc(Nc2ccc(NCCc3c[nH]c4ccccc34)cc2)ccn1` [Compound 151] was tested, and the IC50 was > 10 µM. With `O=C(NCCNCc1cc(Nc2ccc(NCCc3c[nH]c4ccccc34)cc2)ccn1)OCc1ccccc1` [Compound 92] the IC50 was 3.16 µM. Molecule `c1ccc2c(CCNc3ccc(Nc4ccnc5[nH]ccc45)cc3)c[nH]c2c1` [Compound 198] has an IC50 of 1.26 µM. Molecule `c1ccc2c(CCNc3ccc(Nc4ccnc(CN5CCOCC5)c4)cc3)c[nH]c2c1` [Compound 159] has an IC50 of 3.16 µM. `CCOc1cc(Nc2ccnc(C(C)(C)O)c2)ccc1NCCc1c[nH]c2cc(OC)ccc12` [Compound 139] gave an IC50 of 2 µM. In the case of `COCCOCc1cc(Nc2ccc(NCCc3c[nH]c4ccccc34)cc2)ccn1` [Compound 169], the IC50 is reported as 0.398 µM. `COc1cc(Nc2ccncc2)ccc1NCCc1c[nH]c2ccccc12` [Compound 66] gave an IC50 of 0.0631 µM.
